Source: patent US4604239A, “Antibiotics” (Eli Lilly and Company, priority 1985, dated 1986)
≈ marks a conversion by molar mass, not a printed value. Read-outs that look alike come from different tables or passages of the source.

How the values were obtained:
[1] = test system: Bacteroides thetaiotaomicron; type: cell-based
From the text: (§1) The agar-dilution procedure described by the International Collaborative study (ICS) group was used to determine the minimum inhibitory concentrations (MIC's).

Peptococcus magnus = assay: agar-dilution MIC; type: cell-based; conditions: Pc. magnus 1477; Table 15
Method: (§2) The MIC values were determined by the agar-dilution method, and are recorded in Table 15, which follows.

Peptococcus constellatus = assay: agar-dilution MIC; type: cell-based; conditions: Pc. constellatus 1468; Table 15
Method: as §2

[2] = test system: Peptococcus asaccharolyticus; assay: agar-dilution MIC; type: cell-based
Method: as §2

Peptococcus prevoti = assay: agar-dilution MIC; type: cell-based; conditions: Table 15
Method: as §2

Hemophilus influenzae = assay: agar-dilution MIC; type: cell-based
Bacteroides corrodens = assay: agar-dilution MIC; type: cell-based; conditions: Bacteroides corrodens 1874; Table 14
S. pyogenes = assay: experimental bacterial infection in mice; type: in vivo
Staphylococcus aureus = assay: agar-dilution MIC; type: cell-based
solubility = type: physicochemical
Bacteroides fragilis = assay: agar-dilution MIC; type: cell-based
From the text: as §1

Streptococcus pneumoniae = assay: agar-dilution MIC; type: cell-based
From the text: as §1

[3] = test system: Streptococcus sp. (Group D); assay: agar-dilution MIC; type: cell-based
From the text: as §1

Structure (SMILES): N[C@H]1C(=O)N[C@@H]2Cc3ccc(c(Cl)c3)Oc3cc4cc(c3O)Oc3ccc(cc3Cl)[C@@H](O)[C@@H]3NC(=O)C(NC(=O)[C@@H]4NC(=O)[C@@H](NC2=O)c2cc(O)cc(c2)Oc2cc1ccc2O)c1ccc(O)c(c1)-c1c(O)cc(O)cc1[C@@H](C(=O)O)NC3=O [A41030 factor B]
- MIC ([1]; B. thetaiotaomicron 1438, 24-hour, Table 12): 32 µg/mL (≈ 26.7 µM)
- MIC ([1]; Bacteroides thetaiotaomicron 1438, Table 14): 32 µg/mL (≈ 26.7 µM)
- MIC (Peptococcus magnus): 0.25 µg/mL (≈ 0.209 µM)
- MIC (Peptococcus constellatus): 0.5 µg/mL (≈ 0.417 µM)
- MIC ([2]; Pc. asaccharolyticus 1344, Table 15): 0.5 µg/mL (≈ 0.417 µM)
- MIC ([2]; Peptococcus asaccharolyticus 1302, Table 14): ≤ 0.25 µg/mL
- MIC (Peptococcus prevoti; Pc. prevoti 1293): 0.25 µg/mL (≈ 0.209 µM)
- MIC (Peptococcus prevoti; Pc. prevoti 1407): 0.5 µg/mL (≈ 0.417 µM)
- MIC (Hemophilus influenzae; Haemophilus influenzae 76, end point after 24 hours, Table 18): 4 µg/mL (≈ 3.34 µM)
- MIC (Hemophilus influenzae; Haemophilus influenzae 251, Table 17): 2 µg/mL (≈ 1.67 µM)
- MIC (Hemophilus influenzae; Haemophilus influenzae 312, end point after 24 hours, Table 18): 4 µg/mL (≈ 3.34 µM)
- MIC (Hemophilus influenzae; Haemophilus influenzae 4842, end point after 24 hours, Table 18): 4 µg/mL (≈ 3.34 µM)
- MIC (Hemophilus influenzae; Haemophilus influenzae 16836, end point after 24 hours, Table 18): 4 µg/mL (≈ 3.34 µM)
- MIC (Hemophilus influenzae; Haemophilus influenzae Bond, end point after 24 hours, Table 18): 4 µg/mL (≈ 3.34 µM)
- MIC (Hemophilus influenzae; Haemophilus influenzae Brun, Table 17): 8 µg/mL (≈ 6.67 µM)
- MIC (Hemophilus influenzae; Haemophilus influenzae C.L., end point after 24 hours, Table 18): 8 µg/mL (≈ 6.67 µM)
- MIC (Hemophilus influenzae; Haemophilus influenzae Mx366, end point after 24 hours, Table 18): 4 µg/mL (≈ 3.34 µM)
- MIC (Hemophilus influenzae; Haemophilus influenzae Mx371, end point after 24 hours, Table 18): 4 µg/mL (≈ 3.34 µM)
- MIC (Bacteroides corrodens): 64 µg/mL (≈ 53.4 µM)
- ED50 (S. pyogenes; S. pyogenes infection in mice, two doses subcutaneously): 1.4 mg/kg
- in vivo oral activity (S. pyogenes; against S. pyogenes in mice, oral): > 300 mg./kg. X 2
- MIC (Staphylococcus aureus; Staphylococcus aureus 3055, end point after 24 hours, Table 18): 0.06 µg/mL (≈ 0.05 µM)
- MIC (Staphylococcus aureus; Staphylococcus aureus V138, end point after 24 hours, Table 18): 0.06 µg/mL (≈ 0.05 µM)
- MIC (Staphylococcus aureus; in µg/mL): 0.25
- solubility (solvents) (solubility): soluble in the same solvents as factor A
- MIC (Bacteroides fragilis; B. fragilis 2, 24-hour, Table 12): 32 µg/mL (≈ 26.7 µM)
- MIC (Bacteroides fragilis; B. fragilis 9, 24-hour, Table 12): 32 µg/mL (≈ 26.7 µM)
- MIC (Bacteroides fragilis; B. fragilis 103, 24-hour, Table 12): 32 µg/mL (≈ 26.7 µM)
- MIC (Bacteroides fragilis; B. fragilis 104, 24-hour, Table 12): 32 µg/mL (≈ 26.7 µM)
- MIC (Bacteroides fragilis; B. fragilis 106, 24-hour, Table 12): 32 µg/mL (≈ 26.7 µM)
- MIC (Bacteroides fragilis; B. fragilis 107, 24-hour, Table 12): 32 µg/mL (≈ 26.7 µM)
- MIC (Bacteroides fragilis; B. fragilis 108, 24-hour, Table 12): 32 µg/mL (≈ 26.7 µM)
- MIC (Bacteroides fragilis; B. fragilis 110, 24-hour, Table 12): 64 µg/mL (≈ 53.4 µM)
- MIC (Bacteroides fragilis; B. fragilis 111, 24-hour, Table 12): 32 µg/mL (≈ 26.7 µM)
- MIC (Bacteroides fragilis; B. fragilis 112, 24-hour, Table 12): 32 µg/mL (≈ 26.7 µM)
- MIC (Bacteroides fragilis; B. fragilis 113, 24-hour, Table 12): 32 µg/mL (≈ 26.7 µM)
- MIC (Bacteroides fragilis; B. fragilis 1451, 24-hour, Table 12): 64 µg/mL (≈ 53.4 µM)
- MIC (Bacteroides fragilis; B. fragilis 1470, 24-hour, Table 12): 64 µg/mL (≈ 53.4 µM)
- MIC (Bacteroides fragilis; B. fragilis 1877, 24-hour, Table 12): 32 µg/mL (≈ 26.7 µM)
- MIC (Bacteroides fragilis; B. fragilis 9032, 24-hour, Table 12): 32 µg/mL (≈ 26.7 µM)
- MIC (Bacteroides fragilis; Bacteroides fragilis 111, Table 14): 64 µg/mL (≈ 53.4 µM)
- MIC (Bacteroides fragilis; Bacteroides fragilis 1877, Table 14): 32 µg/mL (≈ 26.7 µM)
- MIC (Bacteroides fragilis; Bacteroides fragilis 1936B, Table 14): 32 µg/mL (≈ 26.7 µM)
- MIC (Streptococcus pneumoniae; Streptococcus pneumoniae B1-438, end point after 24 hours, Table 18): 0.5 µg/mL (≈ 0.417 µM)
- MIC (Streptococcus pneumoniae; Streptococcus pneumoniae Park I, Table 17): 0.5 µg/mL (≈ 0.417 µM)
- MIC ([3]; Streptococcus sp. Group D 2041, end point after 24 hours, Table 18): 0.5 µg/mL (≈ 0.417 µM)
- MIC ([3]; Streptococcus sp. Group D 2058, end point after 24 hours, Table 18): 0.5 µg/mL (≈ 0.417 µM)
- MIC ([3]; Streptococcus sp. Group D 8043, end point after 24 hours, Table 18): 0.25 µg/mL (≈ 0.209 µM)
- MIC ([3]; Streptococcus sp. Group D 9901, end point after 24 hours, Table 18): 1 µg/mL (≈ 0.834 µM)
- MIC ([3]; Streptococcus sp. Group D 9960, Table 17): 1 µg/mL (≈ 0.834 µM)
- MIC ([3]; Streptococcus sp. Group D 9960, end point after 24 hours, Table 18): 0.5 µg/mL (≈ 0.417 µM)
- MIC ([3]; Streptococcus sp. Group D 12253F, end point after 24 hours, Table 18): 0.5 µg/mL (≈ 0.417 µM)
- MIC ([3]; Streptococcus sp. Group D Mx161, end point after 24 hours, Table 18): 0.25 µg/mL (≈ 0.209 µM)
- MIC ([3]; Streptococcus sp. Group D X66, Table 17): 1 µg/mL (≈ 0.834 µM)
- MIC ([3]; Streptococcus sp. Group D X66, end point after 24 hours, Table 18): 0.25 µg/mL (≈ 0.209 µM)
